Data on 13 compounds can be found in patent publication US8809376B2, “Indanyloxydihydrobenzofuranylacetic acids” (Boehringer Ingelheim International GmbH, priority 2012, dated 2014).

human GPR40 receptor, sequence (O14842 whole entry): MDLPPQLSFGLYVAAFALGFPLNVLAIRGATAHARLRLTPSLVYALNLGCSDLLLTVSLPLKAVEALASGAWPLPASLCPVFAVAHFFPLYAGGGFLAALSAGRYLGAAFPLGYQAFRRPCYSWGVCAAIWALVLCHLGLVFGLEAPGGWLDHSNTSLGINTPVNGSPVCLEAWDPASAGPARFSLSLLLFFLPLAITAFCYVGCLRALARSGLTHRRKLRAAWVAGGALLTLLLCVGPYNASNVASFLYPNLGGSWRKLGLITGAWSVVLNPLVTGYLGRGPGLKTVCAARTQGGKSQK

The target in the assay is human GPR40 receptor (Homo sapiens, UniProt O14842). Put plainly: Assay II: IP1 accumulation (IPOne assay system) in 1321N1 cells stably expressing human GPR40 receptor. The settings on record: stimulated 1 h at 37° C., 5% CO2, LiCl 50 mM. The assay is classed as cell-based. Here is the method:
IP1 accumulation measurements using the IPOne assay system—1321N1 cells stably expressing human GPR40 receptor (Euroscreen, Belgium) are seeded 24 h before the assay in white 384-well plates in culture medium containing 10% FCS, 1% Na-Pyruvate and 400 μg/mL G418. IP1 is assayed according to the manufacturer's description (Cisbio Bioassays, France). In brief, the assay is started by substitution of the culture medium by stimulation buffer (Hepes 10 mM, CaCl2 1 mM, MgCl2 0.5 mM, KCl 4.2 mM, NaCl 146 mM, glucose 5.5 mM and LiCl 50 mM, pH 7.4). Cells are stimulated for 1 h at 37° C., 5% CO2 by addition of the compounds that are diluted in stimulation buffer containing LiCl. Assays are stopped by adding HTRF-conjugates (IP1-d2 and Anti-IP1 cryptate Tb) and lysis buffer, provided by the manufacturer. After an incubation time of 1 h at room temperature plates are measured using an EnVision™, Perkin Elmer. The obtained fluorescence ratios at 665/615 […] are then used to calculate the pEC50 values using Assay Explorer 3.3 Software (Accelrys, Inc.) by interpolation using an IP1 reference curve and subsequent sigmoidal curve fitting allowing for a variable hill slope.
With `CS(=O)(=O)c1ccc(Cc2c(C(F)(F)F)ccc3c2CC[C@H]3Oc2ccc3c(c2)OC[C@H]3CC(=O)O)cc1` [Example 17, {(S)-6-[(R)-4-(4-Methylsulfonyl-benzyl)-5-trifluoromethyl-indan-1-yloxy]-2,3-dihydro-benzofuran-3-yl}-acetic acid], the response was half-maximal at 24 nM (EC50). The figure for `O=C(O)C[C@@H]1COc2cc(O[C@@H]3CCc4c(Cc5cc(F)cc(F)c5)ccc(F)c43)ccc21` [Example 18, {(S)-6-[(R)-4-(3,5-Difluoro-benzyl)-7-fluoro-indan-1-yloxy]-2,3-dihydrobenzofuran-3-yl}-acetic acid] is 27 nM; for `O=C(O)C[C@@H]1COc2cc(O[C@@H]3CCc4c(Cc5c(F)cccc5F)ccc(F)c43)ccc21` [Example 19, {(S)-6-[(R)-4-(2,6-Difluoro-benzyl)-7-fluoro-indan-1-yloxy]-2,3-dihydrobenzofuran-3-yl}-acetic acid] it is 23 nM. `N#Cc1ccc(Cc2ccc(F)c3c2CC[C@H]3Oc2ccc3c(c2)OC[C@H]3CC(=O)O)cc1` [Example 20, {(S)-6-[(R)-4-(4-Cyano-benzyl)-7-fluoro-indan-1-yloxy]-2,3-dihydrobenzofuran-3-yl}-acetic acid]: a half-maximal effect (EC50) was put at 589 nM.

As for `O=C(O)C[C@@H]1COc2cc(O[C@@H]3CCc4c(Cc5ccc(F)cc5F)ccc(F)c43)ccc21` [Example 21, {(S)-6-[(R)-4-(2,4-Difluoro-benzyl)-7-fluoro-indan-1-yloxy]-2,3-dihydrobenzofuran-3-yl}-acetic acid], the EC50 (in general, the concentration at which the effect is half-maximal) is 15 nM. `N#Cc1ccc2c(c1Cc1ccccc1F)CC[C@H]2Oc1ccc2c(c1)OC[C@H]2CC(=O)O` [Example 22, {(S)-6-[(R)-5-Cyano-4-(2-fluoro-benzyl)-indan-1-yloxy]-2,3-dihydro-benzofuran-3-yl}-acetic acid]: the EC50 is 6 nM.

`N#Cc1ccc2c(c1Cc1ccc(F)cc1)CC[C@H]2Oc1ccc2c(c1)OC[C@H]2CC(=O)O` [Example 23, {(S)-6-[(R)-5-Cyano-4-(4-fluoro-benzyl)-indan-1-yloxy]-2,3-dihydro-benzofuran-3-yl}-acetic acid] showed an EC50 of 11 nM. Compared with the last compound, the EC50 is about 1.8-fold higher. As for `N#Cc1ccc2c(c1Cc1cccc(F)c1)CC[C@H]2Oc1ccc2c(c1)OC[C@H]2CC(=O)O` [Example 24, {(S)-6-[(R)-5-Cyano-4-(3-fluoro-benzyl)-indan-1-yloxy]-2,3-dihydro-benzofuran-3-yl}-acetic acid], the figure is 12 nM; as for `O=C(O)C[C@@H]1COc2cc(O[C@@H]3CCc4c3ccc(C(F)(F)F)c4Cc3ccc(O)cc3)ccc21` [Example 25, {(S)-6-[(R)-4-(4-Hydroxy-benzyl)-5-trifluoromethyl-indan-1-yloxy]-2,3-dihydrobenzofuran-3-yl}-acetic acid], 2 nM. As for `O=C(O)C[C@@H]1COc2cc(O[C@@H]3CCc4c3ccc(C(F)(F)F)c4Cc3ccc(F)cc3F)ccc21` [Example 26, {(S)-6-[(R)-4-(2,4-Difluoro-benzyl)-5-trifluoromethyl-indan-1-yloxy]-2,3-dihydrobenzofuran-3-yl}-acetic acid], the figure is 2 nM.

Consider `COc1cccc(Cc2c(C(F)(F)F)ccc3c2CC[C@H]3Oc2ccc3c(c2)OC[C@H]3CC(=O)O)c1` [Example 27, {(S)-6-[(R)-4-(3-Methoxy-benzyl)-5-trifluoromethyl-indan-1-yloxy]-2,3-dihydrobenzofuran-3-yl}-acetic acid], for which the EC50 is 5 nM. Regarding `N#Cc1ccc2c(c1Cc1c(F)cccc1F)CC[C@H]2Oc1ccc2c(c1)OC[C@H]2CC(=O)O` [Example 28, {(S)-6-[(R)-5-Cyano-4-(2,6-difluoro-benzyl)-indan-1-yloxy]-2,3-dihydro-benzofuran-3-yl}-acetic acid], the response was half-maximal at 5 nM (EC50).

The compound `O=C(O)C[C@@H]1COc2cc(O[C@@H]3CCc4c3ccc(C(F)(F)F)c4Cc3cccc(F)c3)ccc21` [Example 29, {(S)-6-[(R)-4-(3-Fluoro-benzyl)-5-trifluoromethyl-indan-1-yloxy]-2,3-dihydrobenzofuran-3-yl}-acetic acid] gave an EC50 of 3 nM.
